Active and inactive are the calls of the source.
Key:
[1] = target: Voltage-gated inwardly rectifying potassium channel KCNH2 (Homo sapiens, UniProt Q12809); conditions: Potency;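 further: confirmatory quantitative high-throughput screen measuring inhibition of hERG channel activity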
Cysteine protease ATG4B = Cysteine protease ATG4B (Homo sapiens, UniProt Q9Y4P1); assay type: functional;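 further: Fluorescence-based dose-response confirmation assay measuring inhibition of ATG4B activity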
[2] = target: T1, Carboxy-terminal domain RNA polymerase II polypeptide A small phosphatase 1 (Homo sapiens, UniProt Q9GZU7); experiment: CTDSP1 inhibitors, concentration-response, biochemical, absorbance readout, ultra-high-throughput screen actives (AID 540297); assay type: functional
T1 sequence (Q9GZU7 whole entry): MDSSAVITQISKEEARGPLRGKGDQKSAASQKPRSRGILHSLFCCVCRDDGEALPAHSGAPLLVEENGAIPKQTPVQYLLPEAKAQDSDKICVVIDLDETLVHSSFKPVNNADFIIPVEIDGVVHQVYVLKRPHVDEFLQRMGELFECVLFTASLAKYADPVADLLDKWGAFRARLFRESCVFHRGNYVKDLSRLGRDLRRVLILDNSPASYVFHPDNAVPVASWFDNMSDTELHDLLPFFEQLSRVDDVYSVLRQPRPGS

[3] = CCR5-tropic HIV-1 fusion blockers – cell-based, CCR5-tropic Env, dose response (AID 2279); assay type: functional
[4] = target: Envelope glycoprotein gp160 (Human immunodeficiency virus 1, UniProt Q6QLK5); experiment: cell-free HIV fusion peptide-binding blockers – biochemical, uHTS, fluorescence dequenching, […] (AID 1986)
Phospholipase A2 = Phospholipase A2 (Homo sapiens, UniProt P04054); assay type: functional;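 further: confirmatory dose-response counterscreen on phospholipase A2, testing hits that came from an ultra-high-throughput screen for ATG4B inhibitors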
[5] = target: T2, Beta-2 adrenergic receptor (Homo sapiens, UniProt P07550); experiment: ADRB2 activation measured by internalization – cell-based, FAP fluorogen, flow cytometry, cherry pick 1, dose response (AID 588763); assay type: functional
T2 sequence (P07550 whole entry): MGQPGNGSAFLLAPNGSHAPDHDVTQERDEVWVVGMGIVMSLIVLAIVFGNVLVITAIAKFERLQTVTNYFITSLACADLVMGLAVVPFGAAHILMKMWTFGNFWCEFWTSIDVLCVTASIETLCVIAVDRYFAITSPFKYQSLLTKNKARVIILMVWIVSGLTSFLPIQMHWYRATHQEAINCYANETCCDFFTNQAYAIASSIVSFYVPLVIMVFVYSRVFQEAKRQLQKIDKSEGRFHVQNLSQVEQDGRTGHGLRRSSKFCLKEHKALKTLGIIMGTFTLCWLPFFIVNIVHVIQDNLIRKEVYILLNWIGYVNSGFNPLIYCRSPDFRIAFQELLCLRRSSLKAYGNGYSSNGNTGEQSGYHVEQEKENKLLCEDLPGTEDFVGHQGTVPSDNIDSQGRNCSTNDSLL

[6] = target: T2, Beta-2 adrenergic receptor; experiment: Dose response for HTS for Beta-2AR agonists via FAP method from Powderset3.; assay type: functional
Wee1-like protein kinase = Wee1-like protein kinase (Homo sapiens, UniProt P30291); experiment: Navigating the Kinome. Panel member name: WEE1; assay type: functional
[7] = target: ALK tyrosine kinase receptor (Homo sapiens, UniProt Q9UM73); assay type: functional;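 further: ALK tested as one member of a kinase panel screen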
Chain of ALK tyrosine kinase receptor (Q9UM73 whole entry): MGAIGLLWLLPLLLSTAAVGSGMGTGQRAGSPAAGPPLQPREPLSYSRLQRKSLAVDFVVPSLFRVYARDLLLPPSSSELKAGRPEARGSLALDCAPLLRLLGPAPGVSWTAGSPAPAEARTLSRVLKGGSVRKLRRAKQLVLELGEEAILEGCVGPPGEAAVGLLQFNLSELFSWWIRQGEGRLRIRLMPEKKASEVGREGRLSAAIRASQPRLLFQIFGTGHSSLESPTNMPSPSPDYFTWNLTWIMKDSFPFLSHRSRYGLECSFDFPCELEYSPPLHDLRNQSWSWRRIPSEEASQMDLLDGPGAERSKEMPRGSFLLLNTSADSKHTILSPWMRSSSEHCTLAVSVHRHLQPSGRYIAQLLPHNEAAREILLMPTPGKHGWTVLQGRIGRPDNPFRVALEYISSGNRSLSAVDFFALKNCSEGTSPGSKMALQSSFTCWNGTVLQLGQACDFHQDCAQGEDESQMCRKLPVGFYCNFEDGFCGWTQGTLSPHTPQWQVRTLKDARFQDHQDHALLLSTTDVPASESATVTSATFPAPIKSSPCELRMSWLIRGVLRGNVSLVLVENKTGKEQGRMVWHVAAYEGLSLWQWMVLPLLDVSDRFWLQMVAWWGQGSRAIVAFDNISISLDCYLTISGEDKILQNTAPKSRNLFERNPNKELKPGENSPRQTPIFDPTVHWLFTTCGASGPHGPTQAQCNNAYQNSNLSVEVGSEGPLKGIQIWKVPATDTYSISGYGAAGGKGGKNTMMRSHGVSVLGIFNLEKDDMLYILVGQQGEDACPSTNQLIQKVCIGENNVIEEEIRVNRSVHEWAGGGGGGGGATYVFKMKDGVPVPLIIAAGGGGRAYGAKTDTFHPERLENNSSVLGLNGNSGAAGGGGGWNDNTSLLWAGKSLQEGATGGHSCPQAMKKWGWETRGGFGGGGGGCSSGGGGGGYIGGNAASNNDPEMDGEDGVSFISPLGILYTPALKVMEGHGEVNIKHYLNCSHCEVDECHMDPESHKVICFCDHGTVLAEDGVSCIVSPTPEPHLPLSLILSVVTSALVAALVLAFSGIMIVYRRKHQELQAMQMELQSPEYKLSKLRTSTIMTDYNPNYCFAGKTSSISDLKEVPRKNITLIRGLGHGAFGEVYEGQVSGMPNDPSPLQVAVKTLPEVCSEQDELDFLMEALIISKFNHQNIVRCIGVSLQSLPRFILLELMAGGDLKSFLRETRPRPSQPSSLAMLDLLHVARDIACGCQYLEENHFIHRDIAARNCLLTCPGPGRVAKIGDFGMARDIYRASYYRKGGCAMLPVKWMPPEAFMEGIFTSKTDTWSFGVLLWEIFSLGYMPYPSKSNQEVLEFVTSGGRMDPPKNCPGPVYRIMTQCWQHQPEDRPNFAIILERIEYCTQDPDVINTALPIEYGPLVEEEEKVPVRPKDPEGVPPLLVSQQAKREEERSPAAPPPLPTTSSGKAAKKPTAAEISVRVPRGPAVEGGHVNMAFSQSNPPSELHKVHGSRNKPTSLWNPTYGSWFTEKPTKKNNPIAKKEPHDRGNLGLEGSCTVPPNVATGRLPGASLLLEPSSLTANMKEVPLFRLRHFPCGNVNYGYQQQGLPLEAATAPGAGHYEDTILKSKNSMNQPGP

[8] = target: T3, Glycogen synthase kinase-3 beta (Homo sapiens, UniProt P49841); experiment: Inhibition of Human GSK-3 beta Activity Measured in Biochemical System Using Microfluidics - 2063-05_Inhibitor_Dose_DryPowder_Activity. [Related pubchem assays (depositor defined):AID2709]
T3 sequence (P49841 whole entry): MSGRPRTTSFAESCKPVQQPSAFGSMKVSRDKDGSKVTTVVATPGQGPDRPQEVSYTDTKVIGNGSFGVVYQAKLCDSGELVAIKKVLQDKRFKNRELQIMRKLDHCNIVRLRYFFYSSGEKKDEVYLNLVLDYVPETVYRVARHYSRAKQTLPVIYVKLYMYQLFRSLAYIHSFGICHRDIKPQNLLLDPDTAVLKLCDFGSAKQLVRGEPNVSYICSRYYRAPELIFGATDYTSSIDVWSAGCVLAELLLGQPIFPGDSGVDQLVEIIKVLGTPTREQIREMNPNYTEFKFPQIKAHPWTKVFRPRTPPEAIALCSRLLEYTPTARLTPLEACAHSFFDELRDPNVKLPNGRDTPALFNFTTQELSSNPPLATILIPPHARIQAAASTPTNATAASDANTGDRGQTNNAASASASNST

[9] = target: T4, Glycogen synthase kinase-3 alpha (Homo sapiens, UniProt P49840); experiment: Inhibition of Human GSK-3 alpha Activity Measured in Biochemical System Using Microfluidics - 2063-06_Inhibitor_Dose_DryPowder_Activity. [Related pubchem assays (depositor defined):AID2709]
T4 sequence (P49840 whole entry): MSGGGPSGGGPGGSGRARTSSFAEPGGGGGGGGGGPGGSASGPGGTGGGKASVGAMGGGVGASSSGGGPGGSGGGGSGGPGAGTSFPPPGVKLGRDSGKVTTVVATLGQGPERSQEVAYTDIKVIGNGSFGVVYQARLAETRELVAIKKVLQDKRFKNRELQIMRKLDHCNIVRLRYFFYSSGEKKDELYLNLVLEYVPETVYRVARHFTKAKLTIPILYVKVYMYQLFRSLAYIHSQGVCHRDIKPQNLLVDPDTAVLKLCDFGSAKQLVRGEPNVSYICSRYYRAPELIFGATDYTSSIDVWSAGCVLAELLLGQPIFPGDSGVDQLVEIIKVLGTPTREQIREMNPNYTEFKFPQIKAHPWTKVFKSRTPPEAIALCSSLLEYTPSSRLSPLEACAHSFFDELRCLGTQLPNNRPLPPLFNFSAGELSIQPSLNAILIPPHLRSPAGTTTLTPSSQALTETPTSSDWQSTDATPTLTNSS

[10] = target: 3-phosphoinositide-dependent protein kinase 1 (Homo sapiens, UniProt O15530); assay type: functional;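 further: value comes from the Navigating the Kinome panel, PDPK1 member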
[11] = target: Protein kinase C zeta type (Homo sapiens, UniProt Q05513); assay type: functional;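 further: measured as one member of a broad kinase profiling panel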
Protein skinhead-1 = target: T5, Protein skinhead-1 (Caenorhabditis elegans, UniProt P34707); assay type: functional
T5 sequence (P34707 whole entry): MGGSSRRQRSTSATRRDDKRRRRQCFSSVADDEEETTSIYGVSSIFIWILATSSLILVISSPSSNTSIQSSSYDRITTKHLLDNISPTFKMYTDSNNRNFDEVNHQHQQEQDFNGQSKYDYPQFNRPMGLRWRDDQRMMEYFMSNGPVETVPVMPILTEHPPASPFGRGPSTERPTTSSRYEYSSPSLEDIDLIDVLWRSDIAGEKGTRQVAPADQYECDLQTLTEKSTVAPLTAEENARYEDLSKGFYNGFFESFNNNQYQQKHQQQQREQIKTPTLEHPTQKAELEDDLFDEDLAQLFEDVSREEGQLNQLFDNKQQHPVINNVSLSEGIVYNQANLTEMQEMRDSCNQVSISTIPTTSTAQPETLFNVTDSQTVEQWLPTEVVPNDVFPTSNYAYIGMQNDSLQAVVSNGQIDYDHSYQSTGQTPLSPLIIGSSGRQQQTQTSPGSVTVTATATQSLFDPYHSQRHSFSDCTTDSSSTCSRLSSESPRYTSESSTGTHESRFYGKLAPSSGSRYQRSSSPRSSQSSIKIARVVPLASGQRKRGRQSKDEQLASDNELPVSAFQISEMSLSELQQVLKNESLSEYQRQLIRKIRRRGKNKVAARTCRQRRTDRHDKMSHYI

[12] = target: T6, Heat shock protein HSP 90-alpha (Homo sapiens, UniProt P07900); experiment: Luminescence-based dose response biochemical high throughput screening assay for inhibitors of the Heat Shock Protein 90 (HSP90). [Related pubchem assays: 1831 (Summary AID.), 1846 (Confirmation screen.), 1789 (Primary screen.)]
[13] = target: Beta-adrenergic receptor kinase 1 (Homo sapiens, UniProt P25098); experiment: aptamer displacement from bead-bound GRK2 – biochemical, cherry pick 1, bead flow cytometry, dose response (AID 504500)
[14] = target: DNA dC->dU-editing enzyme APOBEC-3G (Homo sapiens, UniProt Q9HC16); experiment: inhibition of APOBEC3G ssDNA deamination – biochemical, fluorescence, single-stranded DNA substrate, SAR follow-up (AID 602136); assay type: functional; conditions: read-out: IC50_Mean
[15] = target: DNA dC->dU-editing enzyme APOBEC-3A (Homo sapiens, UniProt P31941); experiment: SAR analysis of small molecule inhibitors of APOBEC3A DNA Deaminase via a fluorescence-based single-stranded DNA deaminase assay.; assay type: functional; conditions: read-out: IC50_Mean
[16] = target: Cyclin-dependent kinase 19 (Homo sapiens, UniProt Q9BWU1); experiment: Navigating the Kinome. Panel member name: CDC2L6; assay type: functional
[17] = target: Cyclin-dependent kinase 2 (Homo sapiens, UniProt P24941); assay type: functional;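 further: CDK2 measured as one member of a broad kinome profiling panel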
[18] = target: Cyclin-dependent kinase 5 (Homo sapiens, UniProt Q00535); assay type: functional;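 further: CDK5 measured as one member of a kinase profiling panel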
[19] = target: Cyclin-dependent kinase 1 (Homo sapiens, UniProt P06493); assay type: functional;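 further: Kinome-wide panel profiling, with the target listed as panel member CDC2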
[20] = target: Casein kinase I isoform delta (Homo sapiens, UniProt P48730); assay type: functional;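 further: measured as one member (CSNK1D) of a kinome panel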
[21] = target: Serine/threonine-protein kinase Chk2 (Homo sapiens, UniProt O96017); assay type: functional;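 further: CHEK2 entry within a kinome-wide screening panel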
[22] = target: MAP kinase-activated protein kinase 3 (Homo sapiens, UniProt Q16644); assay type: functional;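 further: value comes from a kinome-wide profiling panel in which MAPKAPK3 is one of the panel members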
[23] = target: Mitogen-activated protein kinase kinase kinase kinase 4 (Homo sapiens, UniProt O95819); assay type: functional
[24] = target: Homeodomain-interacting protein kinase 2 (Homo sapiens, UniProt Q9H2X6); assay type: functional;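 further: measured within a kinome-wide kinase profiling panel, HIPK2 being one panel member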
[25] = target: Interleukin-1 receptor-associated kinase 4 (Homo sapiens, UniProt Q9NWZ3); assay type: functional
[26] = target: cAMP-dependent protein kinase catalytic subunit alpha (Homo sapiens, UniProt P17612); assay type: functional
[27] = target: T3, Glycogen synthase kinase-3 beta; assay type: functional
[28] = target: Cell division cycle 7-related protein kinase (Homo sapiens, UniProt O00311); assay type: functional;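 further: value obtained from a kinome-wide kinase panel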
[29] = target: Serine/threonine-protein kinase pim-1 (Homo sapiens, UniProt P11309); assay type: functional
HSP90 = HSP90 (Plasmodium falciparum 3D7, UniProt Q8IL32); assay type: functional, organism-based
Beta-galactosidase = Beta-galactosidase (Escherichia coli, UniProt Q8VNN2); experiment: detection-enzyme interference by beta-gal modulators – biochemical, E. coli enzyme, set 3, artefact control for CCR6 antagonist project, dose response (AID 504712); assay type: functional
[30] = target: C-C chemokine receptor type 6 (Homo sapiens, UniProt P51684); experiment: antagonism of CCR6 beta-arrestin recruitment – cell-based, luminescent beta-arrestin readout, dose response (AID 504728); assay type: functional
[31] = target: T6, Heat shock protein HSP 90-alpha; assay type: functional, organism-based
[32] = target: Cyclin-dependent kinase 5/CDK5 activator 1 (Homo sapiens, UniProt Q00535); experiment: human CDK5 activity blockade – biochemical, microfluidic mobility shift, dry powder, selectivity assay for GSK-3 alpha inhibitor project, dose response (AID 588430)
[33] = target: T3, Glycogen synthase kinase-3 beta; experiment: Inhibition of Human GSK-3 beta Activity Measured in Biochemical System Using Microfluidics - 2063-05_Inhibitor_Dose_DryPowder_Activity_Set2. [Related pubchem assays (depositor defined):AID2709]
[34] = target: T4, Glycogen synthase kinase-3 alpha; experiment: Inhibition of Human GSK-3 alpha Activity Measured in Biochemical System Using Microfluidics - 2063-06_Inhibitor_Dose_DryPowder_Activity_Set2. [Related pubchem assays (depositor defined):AID2709]
Phospholipase D1 [35] = target: T7, Phospholipase D1 (Homo sapiens, UniProt Q13393); experiment: cellular phospholipase D1 inhibition IC50 – cell-based, dose response (AID 602151); assay type: functional;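 further: cellular PLD1 assay in Calu-1 cells stimulated with PMA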
T7 sequence (Q13393 whole entry): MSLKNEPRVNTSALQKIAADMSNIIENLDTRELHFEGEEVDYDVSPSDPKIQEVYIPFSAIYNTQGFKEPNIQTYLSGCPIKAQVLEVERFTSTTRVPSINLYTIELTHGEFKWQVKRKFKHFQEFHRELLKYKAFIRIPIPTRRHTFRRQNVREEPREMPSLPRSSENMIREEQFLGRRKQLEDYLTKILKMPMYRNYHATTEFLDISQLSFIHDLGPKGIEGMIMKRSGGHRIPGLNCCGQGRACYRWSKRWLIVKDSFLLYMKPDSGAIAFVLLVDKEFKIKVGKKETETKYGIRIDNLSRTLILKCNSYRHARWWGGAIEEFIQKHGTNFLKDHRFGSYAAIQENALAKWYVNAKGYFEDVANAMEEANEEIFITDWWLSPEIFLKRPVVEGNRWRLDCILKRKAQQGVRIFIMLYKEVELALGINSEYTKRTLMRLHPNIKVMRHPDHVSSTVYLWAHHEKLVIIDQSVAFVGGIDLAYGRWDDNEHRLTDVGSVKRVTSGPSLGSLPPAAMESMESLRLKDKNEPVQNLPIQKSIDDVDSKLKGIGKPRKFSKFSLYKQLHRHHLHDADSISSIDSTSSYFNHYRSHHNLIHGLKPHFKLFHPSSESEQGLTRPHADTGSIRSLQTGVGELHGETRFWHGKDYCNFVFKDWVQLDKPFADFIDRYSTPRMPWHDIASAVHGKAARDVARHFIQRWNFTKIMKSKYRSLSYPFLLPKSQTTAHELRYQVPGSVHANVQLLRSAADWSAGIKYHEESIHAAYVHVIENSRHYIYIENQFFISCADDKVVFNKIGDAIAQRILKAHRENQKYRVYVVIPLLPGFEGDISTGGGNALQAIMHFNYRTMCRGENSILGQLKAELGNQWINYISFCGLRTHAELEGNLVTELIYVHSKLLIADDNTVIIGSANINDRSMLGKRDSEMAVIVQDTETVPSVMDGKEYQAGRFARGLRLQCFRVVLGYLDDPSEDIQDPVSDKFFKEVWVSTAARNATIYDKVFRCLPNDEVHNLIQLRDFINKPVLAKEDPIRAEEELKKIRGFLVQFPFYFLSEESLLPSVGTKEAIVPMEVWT

Phospholipase D1 [36] = target: T7, Phospholipase D1; experiment: PLD1 purified enzyme concentration response. [Related pubchem assays (depositor defined):AID588854]; assay type: functional
Phospholipase D2 [37] = target: T8, Phospholipase D2 (Homo sapiens, UniProt O14939); experiment: PLD2 purified enzyme concentration response. [Related pubchem assays (depositor defined):AID588854]; assay type: functional
T8 sequence (O14939 whole entry): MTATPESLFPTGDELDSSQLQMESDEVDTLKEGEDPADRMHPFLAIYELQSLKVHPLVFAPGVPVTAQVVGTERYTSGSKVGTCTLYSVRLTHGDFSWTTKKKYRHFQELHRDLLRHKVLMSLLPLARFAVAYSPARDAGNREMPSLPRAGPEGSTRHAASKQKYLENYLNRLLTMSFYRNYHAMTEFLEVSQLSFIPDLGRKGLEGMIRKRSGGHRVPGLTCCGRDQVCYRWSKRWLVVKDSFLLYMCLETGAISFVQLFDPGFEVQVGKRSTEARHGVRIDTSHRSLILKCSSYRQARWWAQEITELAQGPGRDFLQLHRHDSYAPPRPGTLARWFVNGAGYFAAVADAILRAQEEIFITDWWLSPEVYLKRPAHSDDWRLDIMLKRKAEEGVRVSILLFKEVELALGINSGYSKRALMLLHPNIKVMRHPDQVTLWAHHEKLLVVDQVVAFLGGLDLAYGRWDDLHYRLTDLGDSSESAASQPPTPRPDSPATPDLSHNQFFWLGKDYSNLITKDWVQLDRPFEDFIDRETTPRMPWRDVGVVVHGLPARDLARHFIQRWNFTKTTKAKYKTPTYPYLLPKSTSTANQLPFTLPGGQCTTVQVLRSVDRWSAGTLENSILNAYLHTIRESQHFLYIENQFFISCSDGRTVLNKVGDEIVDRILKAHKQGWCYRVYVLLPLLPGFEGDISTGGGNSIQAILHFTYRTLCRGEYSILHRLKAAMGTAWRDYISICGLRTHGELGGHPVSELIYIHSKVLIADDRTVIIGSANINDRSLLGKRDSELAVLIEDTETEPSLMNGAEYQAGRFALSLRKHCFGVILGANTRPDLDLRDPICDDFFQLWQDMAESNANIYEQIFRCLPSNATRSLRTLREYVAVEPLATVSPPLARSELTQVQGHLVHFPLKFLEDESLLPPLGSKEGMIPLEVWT

Phospholipase D2 [38] = target: T8, Phospholipase D2; experiment: cellular phospholipase D2 inhibition IC50 – cell-based, dose response (AID 602147); assay type: functional;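 further: cellular assay in HEK293 cells overexpressing GFP-tagged PLD2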

SMILES: CC(=O)O[C@]1(C(C)=O)CC[C@H]2[C@@H]3C=C(Cl)C4=CC(=O)[C@@H]5C[C@H]5[C@]4(C)[C@H]3CC[C@@]21C
- AC50 [1]: 35.5 µM (inconclusive)

SMILES: CCOc1cc(/C=C2\SC(=O)N(CC(=O)Nc3ccccc3F)C2=O)cc([N+](=O)[O-])c1O
- IC50 (Cysteine protease ATG4B): 9.16 µM (active)
- IC50 [2]: 9.89 µM (active)
- IC50 [3]: 43.6 µM (active)
- IC50 [4]: 26.9 µM (active)
- IC50 (Phospholipase A2): 7.23 µM (active)

SMILES: Cc1ccc(NC(=O)C(c2ccc(Cl)cc2)N2CCOCC2)cc1 (stereo not given)
- EC50 [5]: 2.18 µM (active)
- EC50 [6]: 1.51 µM (active)

SMILES: CCN1CCN(c2ccc(Nc3ncc(C)c(Nc4ccc5[nH]ncc5c4)n3)cc2)CC1
- Ki (Wee1-like protein kinase): 15.8 nM (active)
- Ki [7]: 39.8 nM (active)

SMILES: COC(=O)c1ccc(CSc2nnc(-c3ccncc3)o2)cc1
- AC50 [8]: 395 nM (active)
- AC50 [9]: 1.67 µM (active)

SMILES: O=C(NCc1ccc(Br)cc1)c1cnn2c(-c3ccccc3)ccnc12
- Ki [10]: 2.51 µM (active)
- Ki [11]: 2.51 µM (active)

SMILES: Cc1cc2ccccc2n1CCNC(=O)c1cccs1
- IC50 (Protein skinhead-1): > 100 µM (inactive)
- IC50 [12]: 4.57 µM (active)
- EC50 [13]: 3.5 µM (active)

SMILES: c1ccc2c(c1)OCC(c1nnc3c4c5c(sc4ncn13)CCCC5)O2 (stereo not given)
- IC50 [14]: > 99 µM (inactive)
- IC50 [15]: > 99 µM (inactive)

SMILES: COc1ccccc1Nc1nc(Nc2cnn(C)c2)ncc1Br
- Ki [16]: 5.01 µM (active)
- Ki [7]: 1000 nM (active)

SMILES: Cc1c(NC2CCC(N)CC2)nc2ccnn2c1Nc1ccc(F)c(Cl)c1 (stereo not given)
- Ki [17]: 7.94 µM (active)
- Ki [18]: 10 µM (active)
- Ki [19]: 7.94 µM (active)
- Ki [20]: 3.98 µM (active)
- Ki [21]: 3.98 µM (active)
- Ki [22]: 2 µM (active)

SMILES: OCCCCNc1cc(-c2c[nH]c3ncccc23)cc(Cl)n1
- Ki [23]: 3.16 nM (active)
- Ki [24]: 25.1 nM (active)
- Ki [25]: 5.01 µM (active)
- Ki [26]: 251 nM (active)
- Ki [27]: 100 nM (active)
- Ki [28]: 0.794 nM (active)
- Ki [29]: 501 nM (active)

SMILES: Oc1ccc(Cl)c2cccnc12 [CLOXYQUIN]
- AC50 (HSP90): 8.36 µM (active)
- IC50 (Beta-galactosidase): > 66.6 µM (inactive)
- IC50 [30]: > 66.6 µM (inactive)
- AC50 [31]: 6.15 µM (active)

SMILES: Nc1nonc1-n1nnc(C(=O)N/N=C/c2ccccc2F)c1-c1cccs1
- AC50 [32]: 9.28 µM (active)
- AC50 [33]: 325 nM (active)
- AC50 [34]: 422 nM (active)

SMILES: C[C@@H](CN1CCC(n2c(=O)[nH]c3ccccc32)CC1)NC(=O)COc1ccccc1
- IC50 (Phospholipase D1 [35]): 2 nM (active)
- IC50 (Phospholipase D1 [36]): 57 nM (active)
- IC50 (Phospholipase D2 [37]): 5.8 µM (active)
- IC50 (Phospholipase D2 [38]): 3.8 µM (active)

Source: ChEMBL document CHEMBL1201862, “PubChem BioAssay data set” (2004)
